In patent publication US9993494B2, “Compositions and methods for treating fibrotic disease” (eFFECTOR Therapeutics, Inc., priority 2014, dated 2018):

System: normal human lung fibroblasts
Experiment: Ribosomal profiling: translational efficiency in TGFβ-treated fibroblasts
Assay type: cell-based
Details: TGFβ-treated fibroblasts
Procedure: Ribosomal profiling allows for measurement of changes in transcription and translation on a genome-wide basis accompanying TGFβ-dependent transformation of fibroblasts to myofibroblasts. Ribosomal profiles of the TGFβ-treated fibroblasts from Example 1 (about 6×10^6 cells/10 cm plate) were prepared and analyzed for changes in translational efficiencies with respect to potential disease-associated cellular changes accompanying this TGFβ-induced transformation.
Briefly, cells were washed with cold PBS supplemented with cycloheximide and lysed with 1× mammalian cell lysis buffer for 10 minutes on ice. Lysates were clarified by centrifugation for 10 minutes at 14,000 rpm and supernatants were collected. Cell lysates were processed to generate ribosomal protected fragments and total mRNA according to the instructions included with the ARTseq Ribosome Profiling Kit (Illumina, San Diego, Calif.). Sequencing of total RNA (RNA) and of ribosome-protected fragments of RNA (RPF) was carried out using RNA-Seq methodology according to the manufacturer's instructions (Illumina). To analyze the ribosomal profiles, RNA-Seq reads were processed with tools from the FASTX-Toolkit (fastq_quality_trimmer, fastx_clipper and fastx_trimmer). Unprocessed and processed reads were evaluated for a variety of quality measures using FastQC, and processed reads were mapped to the human genome using TopHat (see, e.g., Trapnell et al., Bioinformatics 25:1105, 2009). Gene-by-gene assessment of the number of fragments strictly and uniquely mapping to the coding region of each gene was conducted using HTSeq-count, a component of the HTSeq package. […] Genes with low counts in either RPF or RNA were excluded from differential analyses. Pathway and network analyses of differential data were conducted using Ingenuity Pathway Analysis (IPA).

Structure (SMILES): COC(=O)[C@H]1[C@@H](O)[C@@]2(O)c3c(OC)cc(O[C@@H]4O[C@@H]([C@H](O)CO)CO[C@H]4OC)cc3O[C@@]2(c2ccc(OC)cc2)[C@@H]1c1ccccc1 [Silvestrol]
- renormalizing the translational profile of RPL9 (ENSG00000163682): − (− = <0.9)
- renormalizing the translational profile of RHOBTB3 (ENSG00000164292): − (− = <0.9)
- renormalizing the translational profile of HCN1 (ENSG00000164588): − (− = <0.9)
- renormalizing the translational profile of RPL36AL (ENSG00000165502): − (− = <0.9)
- renormalizing the translational profile of RPL27A (ENSG00000166441): − (− = <0.9)
- renormalizing the translational profile of RP11-382A20.3.1 (ENSG00000166503): − (− = <0.9)
- renormalizing the translational profile of ANKDD1A (ENSG00000166839): − (− = <0.9)
- renormalizing the translational profile of RPL13 (ENSG00000167526): − (− = <0.9)
- renormalizing the translational profile of EEF2 (ENSG00000167658): − (− = <0.9)
- renormalizing the translational profile of CA5B (ENSG00000169239): + (+ = 0.9 to 1.5)
- renormalizing the translational profile of MURC (ENSG00000170681): − (− = <0.9)
- renormalizing the translational profile of HTRA3 (ENSG00000170801): − (− = <0.9)
- renormalizing the translational profile of PDE7B (ENSG00000171408): + (+ = 0.9 to 1.5)
- renormalizing the translational profile of LPAR3 (ENSG00000171517): + (+ = 0.9 to 1.5)
- renormalizing the translational profile of CTPS (ENSG00000171793): − (− = <0.9)
- renormalizing the translational profile of QARS (ENSG00000172053): − (− = <0.9)
- renormalizing the translational profile of RPL38 (ENSG00000172809): − (− = <0.9)
- renormalizing the translational profile of MRPL45 (ENSG00000174100): − (− = <0.9)
- renormalizing the translational profile of RPL4 (ENSG00000174444): − (− = <0.9)
- renormalizing the translational profile of RPL15 (ENSG00000174748): − (− = <0.9)
- renormalizing the translational profile of DES (ENSG00000175084): − (− = <0.9)
- renormalizing the translational profile of EIF3F (ENSG00000175390): − (− = <0.9)
- renormalizing the translational profile of CLCF1 (ENSG00000175505): + (+ = 0.9 to 1.5)
- renormalizing the translational profile of AMIGO3 (ENSG00000176020): − (− = <0.9)
- renormalizing the translational profile of C14orf49 (ENSG00000176438): − (− = <0.9)
- renormalizing the translational profile of RPLP2 (ENSG00000177600): − (− = <0.9)
- renormalizing the translational profile of IMPDH2 (ENSG00000178035): − (− = <0.9)
- renormalizing the translational profile of DNAJC22 (ENSG00000178401): − (− = <0.9)
- renormalizing the translational profile of RPL35A (ENSG00000182899): − (− = <0.9)
- renormalizing the translational profile of LENG9 (ENSG00000182909): + (+ = 0.9 to 1.5)
- renormalizing the translational profile of C22orf32 (ENSG00000183172): − (− = <0.9)
- renormalizing the translational profile of NPW (ENSG00000183971): − (− = <0.9)
- renormalizing the translational profile of PDE4B (ENSG00000184588): +++ (+++ = >2.0)
- renormalizing the translational profile of ROBO2 (ENSG00000185008): − (− = <0.9)
- renormalizing the translational profile of PTCH1 (ENSG00000185920): − (− = <0.9)
- renormalizing the translational profile of POLR1D (ENSG00000186184): − (− = <0.9)
- renormalizing the translational profile of DYNC2H1 (ENSG00000187240): ++ (++ = 1.5 to 2.0)
- renormalizing the translational profile of RPL14 (ENSG00000188846): − (− = <0.9)
- renormalizing the translational profile of LRRK2 (ENSG00000188906): − (− = <0.9)
- renormalizing the translational profile of NACA (ENSG00000196531): − (− = <0.9)
- renormalizing the translational profile of LAMB3 (ENSG00000196878): + (+ = 0.9 to 1.5)
- renormalizing the translational profile of PCBP2 (ENSG00000197111): + (+ = 0.9 to 1.5)
- renormalizing the translational profile of MAP3K5 (ENSG00000197442): − (− = <0.9)
- renormalizing the translational profile of RPL37A (ENSG00000197756): − (− = <0.9)
- renormalizing the translational profile of RPL12 (ENSG00000197958): − (− = <0.9)
- renormalizing the translational profile of LPAR1 (ENSG00000198121): − (− = <0.9)
- renormalizing the translational profile of RPL23A (ENSG00000198242): − (− = <0.9)
- renormalizing the translational profile of RPL10A (ENSG00000198755): − (− = <0.9)
- renormalizing the translational profile of RPL39 (ENSG00000198918): − (− = <0.9)
- renormalizing the translational profile of CARD16 (ENSG00000204397): + (+ = 0.9 to 1.5)
- renormalizing the translational profile of MICA (ENSG00000204520): − (− = <0.9)
- renormalizing the translational profile of GNB2L1 (ENSG00000204628): − (− = <0.9)
- renormalizing the translational profile of RPL17 (ENSG00000215472): − (− = <0.9)
- renormalizing the translational profile of RPL41 (ENSG00000229117): − (− = <0.9)
- renormalizing the translational profile of ARPC1A (ENSG00000241685): − (− = <0.9)
- renormalizing the translational profile of EEF1G (ENSG00000254772): − (− = <0.9)
- number of genes whose translational efficiency was uniquely modulated by the compound (duplicate ribosomal profiles): 26 genes
- effect in renormalizing the translational profile of the gene (gene RPS2 (ENSG00000140988)): − (− = <0.9)
- effect in renormalizing the translational profile of the gene (gene RPS3 (ENSG00000149273)): − (− = <0.9)
- effect in renormalizing the translational profile of the gene (gene RPS3A (ENSG00000145425)): − (− = <0.9)
- effect in renormalizing the translational profile of the gene (gene RPS4X (ENSG00000198034)): − (− = <0.9)
- effect in renormalizing the translational profile of the gene (gene RPS4Y1 (ENSG00000129824)): − (− = <0.9)
- effect in renormalizing the translational profile of the gene (gene RPS5 (ENSG00000083845)): − (− = <0.9)
- effect in renormalizing the translational profile of the gene (gene RPS6 (ENSG00000137154)): − (− = <0.9)
